Test results from patent publication EP1534672B1, “RETINOL DERIVATIVES, THEIR USE IN THE TREATMENT OF CANCER AND FOR POTENTIATING THE EFFICACY OF OTHER CYTOTOXIC AGENTS” (priority 2002, dated 2004).
Like-named read-outs stand apart in the source and are kept apart here. Marks after values point to notes of the source that are not given here.

Columns and labels:
Assay in all cases: Drug cytotoxicity testing (viable cell count, trypan blue exclusion, cell growth inhibition)
Format in all cases: cell-based
[1] = test system: Human Breast Adenocarcinoma Cell Line MDA-MB-231; conditions: for IC50 / inhibition at 0.1 µM / inhibition at 0.01 µM / inhibition at 0.001 µM: Homo sapiens; for IC50: calculated from three concentrations, read-out: IC50 mol/L (a); for inhibition at 0.1 µM / inhibition at 0.01 µM / inhibition at 0.001 µM: read-out: Cell Growth Inhibition, %
Summary of the method: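 A549 cells (10 × 10^3/well) and MDA-MB-231 cells (12 × 10^3/well) were left to adhere for 24 h, then exposed to drugs in medium with 5% FBS for 2 days. Viable cells were counted by trypan blue exclusion after trypsinization. Growth inhibition (%) = (control − test)/control × 100, from three determinations in six replicates each.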

[2] = test system: Human Lung Carcinoma Cell Line A549
[3] = test system: Human Ovary Adenocarcinoma Cell Line SKOV-3; conditions: alone or in formulation at molar ratio 1:6
Description: (§1) MDA-MB-231 cells were propagated in MEM culture medium with 2 mM L-glutamine, 10% heat-inactivated fetal bovine serum (FBS) and antibiotics. DU 145 cells were cultured in MEM culture medium containing 2 mM L-glutamine, 1 mM sodium pyruvate, 10% FBS and antibiotics. SKOV-3 cells were cultured in McCoy's 5A culture medium, supplemented with 1,5 mM L-glutamine, 10% FBS and antibiotics. A549 cells were cultured in Ham's F-12 culture medium with 1 mM L-glutamine, 10% FBS and antibiotics. All media and supplements were purchased from Sigma-Aldrich (St.Louis, MO, USA). Cell propagation of all lines was carried out in Falcon™ 25 cm^2 cultivation flasks (Becton Dickinson Labware).
(§2) Drug cytotoxicity testing was carried out with using Falcon™ 96-well cultivation plates for adherent cells (Becton Dickinson Labware). These plates were seeded by cells either at 12 × 10^3 MDA-MB-231 cells/well, or at 12 × 10^3 DU 145 cells/well, or at 14 × 10^3 SKOV-3 cells/well, or at 10 × 10^3 A549 cells/well in a volume of 200 µL/well.
(§3) The cell cultures in cultivation plates were allowed to adhere for 24 hour of incubation. On day 1 after cell seeding, 2 µL solutions of the drugs to be tested in medium with 5% FBS was added to the cultures. In the control cultures, 2 µL of medium with 5% FBS was added as solvent control. The cells were incubated for 2 consecutive days. At the end of the incubation period adherent cells were detached by trypsinization and the number of viable cells was counted using trypan blue exclusion test and a hemocytometer. All data were derived from an average of three determinations each in six replicates. The results were expressed as mean cell number ± SE and the differences between control and test series evaluated by means of Student's t-test. The drug cytotoxicity was evaluated based on the extent of cell growth inhibition. The cell growth inhibition of the tested drugs was calculated as follows: Cell growth inhibition,% = (Control-TestSeries)/(Control) × 100 [formula]

[4] = test system: Human Prostate Carcinoma Cell Line DU 145; conditions: alone or in formulation at molar ratio 1:6
Description: as §1, §2, §3

[5] = cytotoxic drug 10^-7 mol/L (100 nM), alone or in formulation at molar ratio 1:6, working solutions in medium with 5% FBS, listed as docetaxel, trihydrate
[6] = cytotoxic drug 10^-7 mol/L (100 nM), alone or in formulation at molar ratio 1:6, working solutions in medium with 5% FBS, trihydrate
[7] = cytotoxic drug 10^-7 mol/L (100 nM), alone or in formulation at molar ratio 1:6, working solutions in medium with 5% FBS, trihydrate, 0.1 µM
[8] = cytotoxic drug 10^-8 mol/L, alone or in formulation at molar ratio 1:6, working solutions in medium with 5% FBS
[9] = cytotoxic drug 10^-9 mol/L, alone or in formulation at molar ratio 1:6, working solutions in medium with 5% FBS
[10] = cytotoxic drug alone 10^-7 mol/L, average of positive controls in medium with 5% FBS, normal saline and saline with 2,3 mM CaCl2
[11] = cytotoxic drug alone 10^-8 mol/L, average of positive controls in medium with 5% FBS, normal saline and saline with 2,3 mM CaCl2
[12] = cytotoxic drug alone 10^-9 mol/L, average of positive controls in medium with 5% FBS, normal saline and saline with 2,3 mM CaCl2
[13] = cytotoxic drug 10^-7 mol/L (100 nM), working solutions in medium with 5% FBS, listed as docetaxel, trihydrate
[14] = cytotoxic drug 10^-7 mol/L (100 nM), working solutions in medium with 5% FBS, trihydrate
[15] = cytotoxic drug 10^-7 mol/L (100 nM), working solutions in medium with 5% FBS, trihydrate, 0.1 µM
[16] = cytotoxic drug 10^-8 mol/L, working solutions in medium with 5% FBS
[17] = cytotoxic drug 10^-9 mol/L, working solutions in medium with 5% FBS

Compound: CC(=O)O[C@@]12CO[C@@H]1C[C@H](O)[C@@]1(C)C(=O)[C@H](O)C3=C(C)[C@@H](OC(=O)[C@H](O)[C@@H](NC(=O)OC(C)(C)C)c4ccccc4)C[C@@](O)([C@@H](OC(=O)c4ccccc4)[C@H]21)C3(C)C [Docetaxel, (2R,3S)-N-carboxy-3-phenylisoserine, N-tert-butyl ester, 13-ester with 5β-20-epoxy-1,2α ,4,7β,10β,13α -hexahydroxytax-11-en-9-one 4-acetate 2-benzoate, trihydrate]
- IC50 ([1]; MDA-MB-231, as concentration of cytotoxic drug, alone or in formulation at molar ratio 1:6, medium with 5% FBS): 3.6 nM
- inhibition at 0.1 µM ([1]; MDA-MB-231, cytotoxic drug 10^-7 mol/L (100 nM), alone or in formulation at molar ratio 1:6, working solutions in medium with 5% FBS): 73.3%
- inhibition at 0.01 µM ([1]; MDA-MB-231, cytotoxic drug 10^-8 mol/L, alone or in formulation at molar ratio 1:6, working solutions in medium with 5% FBS): 58.1%
- inhibition at 0.001 µM ([1]; MDA-MB-231, cytotoxic drug 10^-9 mol/L, alone or in formulation at molar ratio 1:6, working solutions in medium with 5% FBS): 38.7%
- inhibition at 0.1 µM ([1]; MDA-MB-231, cytotoxic drug alone 10^-7 mol/L, average of positive controls in medium with 5% FBS, normal saline and saline with 2,3 mM CaCl2): 76.5%
- inhibition at 0.01 µM ([1]; MDA-MB-231, cytotoxic drug alone 10^-8 mol/L, average of positive controls in medium with 5% FBS, normal saline and saline with 2,3 mM CaCl2): 56.3%
- inhibition at 0.001 µM ([1]; MDA-MB-231, cytotoxic drug alone 10^-9 mol/L, average of positive controls in medium with 5% FBS, normal saline and saline with 2,3 mM CaCl2): 36.4%
- IC50 ([1]; MDA-MB-231, cytotoxic drug alone, average of positive controls): 4.6 nM
- Tumor Cell Number, × 10^3 [1, 5]: 15.4 ± 1.02 × 10^3
- Tumor Cell Number, × 10^3 [1, 6]: 13.7 ± 1.03 × 10^3
- Cell Growth Inhibition, % [1, 7]: 75.4* %
- Tumor Cell Number, × 10^3 [1, 8]: 23.4 ± 2.15 × 10^3
- Tumor Cell Number, × 10^3 [1, 9]: 34.2 ± 2.28 × 10^3
- Tumor Cell Number, × 10^3 [1, 10]: 13.6±0.72 × 10^3
- Tumor Cell Number, × 10^3 [1, 11]: 25.3±1.18 × 10^3
- Tumor Cell Number, × 10^3 [1, 12]: 36.8±1.70 × 10^3
- inhibition at 0.1 µM ([2]; Homo sapiens, A549, cytotoxic drug 10^-7 mol/L (100 nM), alone or in formulation at molar ratio 1:6, working solutions in medium with 5% FBS): 80.3%
- inhibition at 0.01 µM ([2]; Homo sapiens, A549, cytotoxic drug 10^-8 mol/L, alone or in formulation at molar ratio 1:6, working solutions in medium with 5% FBS): 71.4%
- inhibition at 0.001 µM ([2]; Homo sapiens, A549, cytotoxic drug 10^-9 mol/L, alone or in formulation at molar ratio 1:6, working solutions in medium with 5% FBS): 37.5%
- inhibition at 0.1 µM ([2]; Homo sapiens, A549, cytotoxic drug alone 10^-7 mol/L, average of positive controls in medium with 5% FBS, normal saline and saline with 2,3 mM CaCl2): 80.3%
- inhibition at 0.01 µM ([2]; Homo sapiens, A549, cytotoxic drug alone 10^-8 mol/L, average of positive controls in medium with 5% FBS, normal saline and saline with 2,3 mM CaCl2): 71%
- inhibition at 0.001 µM ([2]; Homo sapiens, A549, cytotoxic drug alone 10^-9 mol/L, average of positive controls in medium with 5% FBS, normal saline and saline with 2,3 mM CaCl2): 36%
- IC50 ([2]; Homo sapiens, A549, as concentration of cytotoxic drug, alone or in formulation at molar ratio 1:6, medium with 5% FBS, calculated from three concentrations, read-out: IC50 mol/L (a)): 2.2 nM
- Tumor Cell Number, × 10^3 [2, 5]: 10.6 ± 0.72 × 10^3
- Tumor Cell Number, × 10^3 [2, 6]: 10.5 ± 0.97 × 10^3
- Cell Growth Inhibition, % [2, 7]: 80.8* %
- Tumor Cell Number, × 10^3 [2, 8]: 15.6 ± 0.49 × 10^3
- Tumor Cell Number, × 10^3 [2, 9]: 34.1 ± 2.07 × 10^3
- Tumor Cell Number, × 10^3 [2, 10]: 11.0±0.73 × 10^3
- Tumor Cell Number, × 10^3 [2, 11]: 16.2±0.75 × 10^3
- Tumor Cell Number, × 10^3 [2, 12]: 35.7±1.51 × 10^3
- inhibition at 0.1 µM ([3]; Homo sapiens, SK-OV-3, cytotoxic drug 10^-7 mol/L (100 nM), working solutions in medium with 5% FBS): 68.7%
- inhibition at 0.01 µM ([3]; Homo sapiens, SK-OV-3, cytotoxic drug 10^-8 mol/L, working solutions in medium with 5% FBS): 55.5%
- inhibition at 0.001 µM ([3]; Homo sapiens, SK-OV-3, cytotoxic drug 10^-9 mol/L, working solutions in medium with 5% FBS): 34.2%
- IC50 ([3]; Homo sapiens, SK-OV-3, as concentration of cytotoxic drug, medium with 5% FBS, calculated from three concentrations, read-out: IC50 mol/L (a)): 5.2 nM
- Tumor Cell Number, × 10^3 [3, 13]: 16.1 ± 0.94 × 10^3
- Tumor Cell Number, × 10^3 [3, 14]: 16.8 ± 0.80 × 10^3
- Cell Growth Inhibition, % [3, 15]: 67.8* %
- Tumor Cell Number, × 10^3 [3, 16]: 23.2 ± 2.19 × 10^3
- Tumor Cell Number, × 10^3 [3, 17]: 34.3 ± 2.01 × 10^3
- inhibition at 0.1 µM ([4]; Homo sapiens, DU-145, cytotoxic drug 10^-7 mol/L (100 nM), working solutions in medium with 5% FBS): 74.5%
- inhibition at 0.01 µM ([4]; Homo sapiens, DU-145, cytotoxic drug 10^-8 mol/L, working solutions in medium with 5% FBS): 51.8%
- inhibition at 0.001 µM ([4]; Homo sapiens, DU-145, cytotoxic drug 10^-9 mol/L, working solutions in medium with 5% FBS): 34.7%
- IC50 ([4]; Homo sapiens, DU-145, as concentration of cytotoxic drug, medium with 5% FBS, calculated from three concentrations, read-out: IC50 mol/L (a)): 8 nM
- Tumor Cell Number, × 10^3 [4, 13]: 14.2 ± 0.85 × 10^3
- Tumor Cell Number, × 10^3 [4, 14]: 10.8 ± 0.94 × 10^3
- Cell Growth Inhibition, % [4, 15]: 74.0* %
- Tumor Cell Number, × 10^3 [4, 16]: 20.0 ± 1.16 × 10^3
- Tumor Cell Number, × 10^3 [4, 17]: 27.1 ± 1.07 × 10^3
